# Test results: patent US8894993B2, “Mitochondria-targeted antioxidants” (Natreon Inc., priority 2006, dated 2014)
# Columns and labels:
# [1] = DBP products in mice liver mitochondria before and after DBPs treatment, HPTLC; format: in vivo, Swiss Albino mice; conditions: one hour after i.p. 4:1 mixture of 3,8-(OH)2-DBP and 3-OH-DBP 20 mg/Kg
# Experimental: Mitochondria were isolated from heart and liver of chicken, goat and mice following a published procedure (Liu Y, Deng F, Zhao R and Qu S, Chemosphere, 40(8):851-854, 2000). […] The tissue was cut into small pieces, homogenized and centrifuged at 900 g for one minute. The supernatant was again centrifuged twice, for 20 minutes each time at 900 g. The sediment at each step was discarded. The clear supernatant was centrifuged twice at 12,000 g, 20 minutes each time, to form pellets of a mitochondria-enriched fraction. The fraction was divided into two parts. One part was resuspended in a measured volume of distilled water and sonicated (10 min×2). […] The two extracts were subjected to comprehensive HPTLC and HPLC analyses for detection and quantitation of DBPs and their equivalents. […] One hour after administration the animals were sacrificed and mitochondria from liver were isolated and analyzed as described for Example 6. […] Mobile Phase—Chloroform:Methanol 90:10 Sample application—CAMAG LINOMAT 5 (Automated applicator) Detection—240 nm (CAMAG TLC SCANNER 3) 3-OH-DBP and 3,8-(OH)2-DBP (and their conjugates) were detected in mitochondria of control mice by HPTLC. Administration of DBPs to the animals increased the amount of DBPs and its products in mitochondria as detected by using authentic markers of the two DBPs (Table 2).
# [2] = Stability of reduced CoQ10 (CoQH2) by 3,8-(OH)2-DBP at different pH, HPLC; format: physicochemical
# [3] = tested on: Blood levels of ATP and energy related indices; assay: Blood ATP and energy related indices in mice after restraint stress; format: in vivo, Swiss albino mice; conditions: 25 mg/Kg p.o. 7 days
# Experimental: Swiss albino mice (20±2 g) were fed orally with—(a) 3-OH-DBP and (b) 3,8-(OH)2-DBP (each 25 mg/Kg b.w. per day, for 7 days). In case of the controls, only vehicle (0.8% carboxymethyl cellulose in water) was administered for seven days of the experiment. All the animals of all the groups were subjected to restraint stress (for 60 minutes) on the seventh day of the experiment, 2 hours after drug administration, according to a published method [Figueiredo, H. F., Bodie, B. L., Tauchi, M., Dolgas, C. M. and Herman, J. P. 2003. Endocrinology, 144, 5249-5258]. The model was selected in the present experiment, because restraint stress is a widely used model of acute oxidative stress. Immediately after being exposed to stress, the animals were sacrificed, blood was collected for analysis by HPLC of ATP and related nucleotides [Smolenska, Z., Kaznowska, Z., Zarowny, D., Simmonds, H. A. and Smolenski, R. T. 1999. Rheumatology, 38, 997-1002; Komarova, S. V., Mosharov, E. V., Vitvitsky, V. M. and Ataullakhanov, F. I. 1999. Blood Cell Mol. Dis., 25(13), 170-179; Marquardt, D. L., Gruber, H. E. and Wasserman, S. I. 1984. Proc. Natl. Acad. Sci., 81, 6192-6196], and liver was collected for measurement of superoxide dismutase and catalase activities [Zielinski, S, and Pörtner, H. 2000. Comparative Biochem. Physiol. Part B, 125, 147-[60]. AEC (adenylate energy charge) was calculated according to the method of Atkinson and Walton [Atkinson D E & Walton G M, Adenosine triphosphate conservation in metabolic regulation, J Biol Chem, 242 (1967) 3239] and TAN (total adenine nucleotides) was calculated according to an established method [Spencer M K & Katz A, Role of glycogen in control of glycolysis and IMP formation in human muscle during exercise, Am J Physiol, 260 (1991) E859].
# [4] = tested on: Blood levels of ATP and energy related indices; assay: Blood ATP and energy related indices in mice after forced swimming stress; format: in vivo, Swiss albino mice
# Experimental: Swiss albino mice (20±2 g) were fed orally with—(a) 3,8-(OH)2-DBP and (b) 3-OH-DBP (each 25 mg/Kg b.w.), per day, for 7 days. In case of the controls, only vehicle (0.8% carboxymethyl cellulose in water) was administered for seven days of the experiment. The animals were subjected to ‘forced swimming’ for 30 minutes on the 7th day of the experiment [Pliakas, A. M., Carlson, R. R., Neve, R. L., Konradi, C., Nestler, E. J. and Carlezon, W. A. 2001. J. Neurosci., 21(18), 7397-7403]. Immediately after the swimming, blood was collected from all the animals for analysis of ATP and related nucleotides by HPLC [Smolenska, Z., Kaznowska, Z., Zarowny, D., Simmonds, H. A. and Smolenski, R. T. 1999. Rheumatology, 38, 997-1002; Komarova, S. V., Mosharov, E. V., Vitvitsky, V. M. and Ataullakhanov, F. I. 1999. Blood Cell Mol. Dis., 25(13), 170-179; Marquardt, D. L., Gruber, H. E. and Wasserman, S. I. 1984. Proc. Natl. Acad. Sci., 81, 6192-6196]. AEC (adenylate energy charge) was calculated according to the method of Atkinson and Walton [Atkinson D E & Walton G M, Adenosine triphosphate conservation in metabolic regulation, J Biol Chem, 242 (1967) 3239] and TAN (total adenine nucleotides) was calculated according to an established method [Spencer M K & Katz A, Role of glycogen in control of glycolysis and IMP formation in human muscle during exercise, Am J Physiol, 260 (1991) E859].
compound,measurement,setting,value
"O=c1oc2cc(O)ccc2c2ccc(O)cc12 [3,8-(OH)2-DBP, 3,8-dihydroxydibenzo-α-pyrone]",Amount in mitochondria after DBP treatment,[1],2.3 nmol/gm wet wt
same,"Regenerated CoQ10 in presence of 3,8-(OH)2-DBP","[2]; autoxidation of CoQH2, pH 8, 80 min",151.28 µg/mL
same,"Regenerated CoQ10 in presence of 3,8-(OH)2-DBP","[2]; autoxidation of CoQH2, pH 8, 100 min",202.31 µg/mL
same,ADP,"[3]; mean ± SEM of 6, control 0.14 ± 0.02",0.09 ± 0.01 µM
same,ATP,"[3]; mean ± SEM of 6, control 0.67 ± 0.03",0.64 ± 0.05 µM
same,TAN,"[3]; mean ± SEM of 6, control 0.76 ± 0.03",0.76 ± 0.06 µM
same,AEC,"[3]; mean ± SEM of 6, control 0.89 ± 0.01",0.90 ± 0.01
same,ATP/ADP ratio,"[3]; mean ± SEM of 6, control 4.90 ± 0.32",6.96 ± 0.49
same,"content of ATP, AEC values and ATP/ADP ratio (in blood), in words",[4]; albino mice engaged in forced swimming,significant improvement only in some parameters
same,ATP,"[4]; blood, forced swimming, 25 mg/Kg p.o. 7 days, mean ± SEM of 6, control 0.60 ± 0.01",0.68 ± 0.03 µM
same,TAN,"[4]; blood, forced swimming, 25 mg/Kg p.o. 7 days, mean ± SEM of 6, control 0.79 ± 0.01",0.86 ± 0.03 µM
same,AEC,"[4]; blood, forced swimming, 25 mg/Kg p.o. 7 days, mean ± SEM of 6, control 0.86 ± 0.003",0.88 ± 0.003
same,ATP/ADP ratio,"[4]; blood, forced swimming, 25 mg/Kg p.o. 7 days, mean ± SEM of 6, control 3.84 ± 0.09",4.30 ± 0.12
